Laboratory results published in patent publication US20230020329A1, “Annelated 9-hydroxy-1,8-dioxo-1,3,4,8-tetrahydro-2H-pyrido[1,2-a]pyrazine-7-carboxamides as HIV integrase inhibitors, methods of preparation and application thereof” (priority 2019, published 2023).

test system: HIV-1 (IIIB strain); assay: Anti-HIV cytoprotection assay (XTT), HIV-1 IIIB in CEM-SS cells; assay type: cell-based; settings: Human immunodeficiency virus 1, IIIB, CEM-SS, CEM-SS cell line; read-out: Inhibitory activity (EC50) against HIV-1 (IIIB strain)
Text: a) Inhibitory Activity of the Lymphocytropic Virus Strain HIV-1 (IIIB) in the CEM-SS Cell Line.
The evaluation was done by ImQuest BioSciences, Inc. (Frederick, Md., USA). CEM-SS cells [Foley G. E. et al. Continuous Culture of Human Lymphoblasts from Peripheral Blood of a Child with Acute Leukemia. Cancer 1965, 18, 522-529] obtained through the NIH AIDS Research and Reference Reagent Program (Manassas, Va., USA) were passaged in T-75 flasks prior to use cell culture medium consisting of RPMI1640 medium (Lonza; Walkersville, Md., USA) supplemented with 10% heat inactivated fetal bovine serum (Gibco; Grand Island, N.Y.), […] L-glutamine (Lonza), […] penicillin (Lonza) and […] streptomycin (Lonza) for antiviral analysis. The CEM-SS cells were kept in RPMI 140 medium supplemented with 10% heat inactivated bovine fetal serum, 2 mM glutamine, 100 U/ml penicillin, and 100 μg/ml streptomycin.
A lymphocytropic HIV-1 IIIB strain [Popovic, M. et al. Detection, isolation, and continuous production of cytopathic retroviruses (HTLV-III) from patients with AIDS and pre-AIDS. Science. 1984, 224 (4648), 497-500] was chosen for a virus to be analyzed. The virus was obtained through the NIH AIDS Research and Reference Reagents Program and grown in CEM-SS cells to produce a stock virus pool. A pre-titrated aliquot of the virus was removed from the freezer (−80° C.) and allowed to slowly thaw to room temperature in a biological safety cabinet. The virus was diluted in a tissue culture medium so that the amount of virus added in 50 μl per well was sufficient to kill 85 to 95% of the cells 6 days after infection. HIV-1 IIIB was grown and titrated in CEM-SS cells. The inhibitory effect of […] was evaluated in CEM-SS cells as described earlier [Nara, P. L. at al. Simple, rapid, quantitative, syncytium-forming microassay for the detection of human immunodeficiency virus neutralizing antibody. AIDS Res. Hum. Retroviruses 1987, 3, 283-302.] in microtiter plate anti-HIV assays to quantitatively assess the ability of a compound to inhibit HIV-induced cell death. Quantification was carried out using 2,3-bis-(2-methoxy-4-nitro-5-[…])-(2H)-tetrazolium-5-carboxanilide (XTT) tetrazolium, which is metabolized to a stained formazan product through viable […] The compounds given in Table 1 were dissolved at 10 μM in DMSO and stored at −20° C.
Test materials were evaluated using antiviral assays in triplicate in concentrations of 30 and 10 nM. The compounds shown in table 1 were dissolved at 10 μM in DMSO and stored at −20° C. […] Sixty nanomolar concentrations of each compound (2 times that of the test concentration in the well) were prepared by diluting 10 μM DMSO stock 1:100 in cell culture medium (10 μl of compound added to 990 μl of the medium) followed by 1:10 dilution (10 μl of the compound was added to 90 μl of the medium), then 6 μl was added to 994 μl of the medium; […] μl was added to a 96-well microtiter plate in triplicate to ensure efficacy and one colorimetric well. Twenty nanomolar concentrations of each compound (twice as much as the test concentration in the well) were prepared by diluting 10 μM DMSO with the original 1:100 in cell culture medium (10 μl of the compound added to 990 μl of the medium) followed by diluting […] (10 μl of the compound was added to 900 μl of the medium), then 20 μl was added to 980 μl of the medium; 100 μl was added to a 96-well microtiter plate in triplicate to ensure efficacy and one colorimetric well.
Azidothymidine (AZT) was purchased from Sigma Aldrich (USA) and evaluated as a positive control compound in an antiviral assay using a six-concentration reaction curve on each assay plate.
Test compounds were initially evaluated for HIV-1 IIIB strain in CEM-SS cells at test concentrations of 30 and 10 nM. […]

Row | Compound | EC50 [nM]
1 | Cc1ccc(CNC(=O)c2cn3c(c(O)c2=O)C(=O)N2[C@@H](C)CO[C@@H]2C3)o1 [Compound 1.1.3, (3S,11aR)-6-hydroxy-3-methyl-N-[(5-methyl-2-furyl)methyl]-5,7-dioxo-2,3,5,7,11,11a-hexahydro[1,3]oxazolo[3,2-a]pyrido[1,2-d]pyrazine-8-carboxamide] | 2 to 10
2 | Cc1coc(CNC(=O)c2cn3c(c(O)c2=O)C(=O)N2[C@@H](C)CO[C@@H]2C3)n1 [Compound 1.1.9, (3S,11aR)-6-hydroxy-3-methyl-N-[(4-methyl-1,3-oxazol-2-yl)methyl]-5,7-dioxo-2,3,5,7,11,11a-hexahydro[1,3]oxazolo[3,2-a]pyrido[1,2-d]pyrazine-8-carboxamide] | > 30
3 | Cc1n[nH]c(C)c1CNC(=O)c1cn2c(c(O)c1=O)C(=O)N1[C@@H](C)CO[C@@H]1C2 [Compound 1.1.4, (3S,11aR)-6-hydroxy-N-[(3,5-dimethyl-1H-pyrazol-4-yl)methyl]-3-methyl-5,7-dioxo-2,3,5,7,11,11a-hexahydro[1,3]oxazolo[3,2-a]pyrido[1,2-d]pyrazine-8-carboxamide] | ~8
4 | O=C(NCc1c(F)cc(F)nc1F)c1cn2c(c(O)c1=O)C(=O)N1[C@H]3CC[C@H](C3)O[C@@H]1C2 [Compound 1.3.2, (2R,5S,13aR)-8-hydroxy-N-[(2,4,6-trifluoropyridin-3-yl)methyl]-7,9-dioxo-2,3,4,5,7,9,13,13a-octahydro-2,5-methanopyrido[1′,2′:4,5]pyrazino[2,1-b][1,3]oxazepine-10-carboxamide] | 2 to 10
5 | C[C@H]1CO[C@@H]2Cn3cc(C(=O)NCc4cn5cc(Cl)sc5n4)c(=O)c(O)c3C(=O)N12 [Compound 1.1.28, (3S,11aR)-6-hydroxy-3-methyl-N-[(2-chloroimidazo[2,1-b][1,3]thiazol-6-yl)methyl]-5,7-dioxo-2,3,5,7,11,11a-hexahydro[1,3]oxazolo[3,2-a]pyrido[1,2-d]pyrazine-8-carboxamide] | > 30
6 | Cc1nn(C)c(C)c1CNC(=O)c1cn2c(c(O)c1=O)C(=O)N1[C@@H](C)CO[C@@H]1C2 [Compound 1.1.5, (3S,11aR)-6-hydroxy-3-methyl-N-[(1,3,5-trimethyl-1H-pyrazol-4-yl)methyl]-5,7-dioxo-2,3,5,7,11,11a-hexahydro[1,3]oxazolo[3,2-a]pyrido[1,2-d]pyrazine-8-carboxamide] | 10 to 30
7 | C[C@H]1CO[C@@H]2Cn3cc(C(=O)NCc4nccs4)c(=O)c(O)c3C(=O)N12 [Compound 1.1.8, (3S,11aR)-6-hydroxy-3-methyl-N-(1,3-thiazol-2-ylmethyl)-5,7-dioxo-2,3,5,7,11,11a-hexahydro[1,3]oxazolo[3,2-a]pyrido[1,2-d]pyrazine-8-carboxamide] | 2 to 10
8 | CCn1nc(C)c(CNC(=O)c2cn3c(c(O)c2=O)C(=O)N2[C@@H](C)CO[C@@H]2C3)c1C [Compound 1.1.6, (3S,11aR)-6-hydroxy-N-[(1-ethyl-3,5-dimethyl-1H-pyrazol-4-yl)methyl]3-methyl-5,7-dioxo-2,3,5,7,11,11a-hexahydro[1,3]oxazolo[3,2-a]pyrido[1,2-d]pyrazine-8-carboxamide] | 10 to 30
9 | C[C@H]1CO[C@@H]2Cn3cc(C(=O)NCc4cc5ccccc5o4)c(=O)c(O)c3C(=O)N12 [Compound 1.1.32, (3S,11aR)-N-(1-benzofuran-2-ylmethyl)-6-hydroxy-3-methyl-5,7-dioxo-2,3,5,7,11,11a-hexahydro[1,3]oxazolo[3,2-a]pyrido[1,2-d]pyrazine-8-carboxamide] | 2 to 10

Second part, the compound after the results:

Row | EC50 [nM] | Compound
10 | > 30 | C[C@H]1CO[C@@H]2Cn3cc(C(=O)NCc4cnc5cnccn45)c(=O)c(O)c3C(=O)N12 [Compound 1.1.59, (3S,11aR)-6-hydroxy-N-(imidazo[1,2-a]pyrazin-3-ylmethyl)-3-methyl-5,7-dioxo-2,3,5,7,11,11a-hexahydro[1,3]oxazolo[3,2-a]pyrido[1,2-d]pyrazine-8-carboxamide]
11 | > 30 | C[C@H]1CO[C@@H]2Cn3cc(C(=O)NCc4nc5ccccc5n4C)c(=O)c(O)c3C(=O)N12 [Compound 1.1.42, (3S,11aR)-6-hydroxy-3-methyl-N-[(1-methyl-benzimidazol-2-yl)methyl]-5,7-dioxo-2,3,5,7,11,11a-hexahydro[1,3]oxazolo[3,2-a]pyrido[1,2-d]pyrazine-8-carboxamide]
12 | > 30 | C[C@H]1CO[C@@H]2Cn3cc(C(=O)NCc4nc5cc(Cl)ccc5o4)c(=O)c(O)c3C(=O)N12 [Compound 1.1.38, (3S,11aR)-6-hydroxy-3-methyl-N-[(5-chloro-1,3-benzoxazol-2-yl)methyl]-5,7-dioxo-2,3,5,7,11,11a-hexahydro[1,3]oxazolo[3,2-a]pyrido[1,2-d]pyrazine-8-carboxamide]
13 | > 30 | CC(C)n1c(CNC(=O)c2cn3c(c(O)c2=O)C(=O)N2[C@@H](C)CO[C@@H]2C3)nc2ccccc21 [Compound 1.1.44, (3S,11aR)-6-hydroxy-3-methyl-N-{[1-isopropyl-1H-benzimidazol-2-yl]methyl}-5,7-dioxo-2,3,5,7,11,11a-hexahydro[1,3]oxazolo[3,2-a]pyrido[1,2-d]pyrazine-8-carboxamide]
14 | > 30 | C[C@H]1CO[C@@H]2Cn3cc(C(=O)NCc4nnc5n4CCCC5)c(=O)c(O)c3C(=O)N12 [Compound 1.1.61, (3S,11aR)-6-hydroxy-3-methyl-N-(5,6,7,8-tetrahydro[1,2,4]triazolo[4,3-a]pyridin-3-ylmethyl)-5,7-dioxo-2,3,5,7,11,11a-hexahydro[1,3]oxazolo[3,2-a]pyrido[1,2-d]pyrazine-8-carboxamide]
15 | 2 to 10 | C[C@H]1CO[C@@H]2Cn3cc(C(=O)NCc4ccc5ccccc5n4)c(=O)c(O)c3C(=O)N12 [Compound 1.1.49, (3S,11aR)-6-hydroxy-3-methyl-N-(quinolin-2-ylmethyl)-5,7-dioxo-2,3,5,7,11,11a-hexahydro[1,3]oxazolo[3,2-a]pyrido[1,2-d]pyrazine-8-carboxamide]
16 | > 30 | C[C@H]1CO[C@@H]2Cn3cc(C(=O)NCc4nc5c(s4)CCCCC5)c(=O)c(O)c3C(=O)N12 [Compound 1.1.63, (3S,11aR)-6-hydroxy-3-methyl-5,7-dioxo-N-(5,6,7,8-tetrahydro-4H-cyclohepta[d][1,3]thiazol-2-ylmethyl)-2,3,5,7,11,11a-hexahydro[1,3]oxazolo[3,2-a]pyrido[1,2-d]pyrazine-8-carboxamide]
17 | 2 to 10 | C[C@H]1CO[C@@H]2Cn3cc(C(=O)NCc4nc5ccc(Cl)cc5o4)c(=O)c(O)c3C(=O)N12 [Compound 1.1.39, (3S,11aR)-6-hydroxy-3-methyl-N-[(6-chloro-1,3-benzoxazol-2-yl)methyl]-5,7-dioxo-2,3,5,7,11,11a-hexahydro[1,3]oxazolo[3,2-a]pyrido[1,2-d]pyrazine-8-carboxamide]
18 | > 30 | CC(C)n1c(CNC(=O)c2cn3c(c(O)c2=O)C(=O)N2[C@@H](C)CO[C@@H]2C3)nc2ccc(Cl)cc21 [Compound 1.1.45, (3S,11aR)-6-hydroxy-3-methyl-N-[(6-chloro-1-isopropyl-1H-benzimidazol-2-yl)methyl]-5,7-dioxo-2,3,5,7,11,11a-hexahydro[1,3]oxazolo[3,2-a]pyrido[1,2-d]pyrazine-8-carboxamide]
19 | 10 to 30 | C[C@H]1CO[C@@H]2Cn3cc(C(=O)NCc4nc5cc(F)ccc5[nH]4)c(=O)c(O)c3C(=O)N12 [Compound 1.1.41, (3S,11aR)-6-hydroxy-3-methyl-N-[(5-ϕTopo-1H-benzimidazol-2-yl)methyl]-5,7-dioxo-2,3,5,7,11,11a-hexahydro[1,3]oxazolo[3,2-a]pyrido[1,2-d]pyrazine-8-carboxamide]
